From PubChem BioAssay (NCI) come the findings set out here.

Holding throughout (assay): NCI tumour cell line growth inhibition, 48 h
Assay [1] relates to 786-0 renal.
Assay [2] deals with NCI-H460 lung.
The test system of assay [3] is OVCAR-8 ovarian.
The test system of assay [4] is NCI/ADR-RES ovarian.
The subject of assay [5] is SK-MEL-5 melanoma.
For assay [6], the system named is SF-539 CNS.
The subject of assay [7] is RPMI-8226 leukemia.
Assay [8] deals with PC-3 prostate.
Assay [9] has as its system EKVX NSCLC.
The test system of assay [10] is SN12C renal.
Assay [11] deals with SNB-19 CNS.
For assay [12], the system named is MDA-MB-435.
The test system of assay [13] is SF-268 CNS.
In assay [14] the test system is OVCAR-3 ovarian.
The test system of assay [15] is TK-10 renal.
Assay [16] concerns K-562 leukemia.
Assay [17] concerns RXF 393 renal.
Assay [18] relates to HT29 colon.
Assay [19] has as its system NCI-H522 lung.
Assay [20] has as its system UACC-62 melanoma.

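All cell lines were grown in 96-well plates and treated with compound for 48 hours. TGI denotes the concentration required for complete inhibition of growth.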

As to `CCc1cc2c(cc1C(=O)CCC(=O)O)CC1(C2)Cc2cc(CC)c(C(=O)CCC(=O)O)cc2C1`, the TGI in assay [1], in assay [2], in assay [3], in assay [4], in [5] and in [6] was above 100 µM throughout. In addition, the TGI in assay [7], in assay [8], in assay [9], in assay [10], in [11] and in assay [12] was above 100 µM throughout. Moreover, the TGI in assay [13], in [14], in [15], in assay [16], in assay [17] and in [18] was above 100 µM throughout. In assay [19], this molecule yielded a TGI above 100 µM.

On to `COc1ccc2c(c1)c1ccc3c(c1n2C)C(=O)C=CC3=O`, for which the TGI was 14.7 µM in assay [1]; 61.2 µM in assay [2]; 26.6 µM in assay [3]; 42.7 µM in [4]; 43.6 µM in assay [5]; 28 µM in [6]. Further, the TGI in assay [7] was 7.35 µM; in assay [8], 26.2 µM; in assay [9] it was 35.7 µM; in assay [10] it was 15.6 µM; in assay [11] it was 53 µM; in [20] it was 29.3 µM. Moreover, the TGI in [12] came out at 22.7 µM; in assay [13], 31.8 µM; in assay [14] it was 20.5 µM; in assay [15], 17.4 µM; in assay [16], 4.89 µM; in [17], 10.4 µM. The figures for the TGI in assay [18] and in assay [19] were 34.9 µM and 7.35 µM, respectively.

On to `CC12CP(=O)(O)CC1C2(Cl)Cl` (stereo unspecified), for which the TGI in [1], in assay [2], in assay [3], in assay [4], in assay [5] and in assay [6] was above 100 µM throughout. Further, the TGI in assay [7], in [8], in [9], in assay [10], in assay [11] and in assay [20] was above 100 µM throughout. Moreover, the TGI in assay [12], in assay [13], in assay [14], in assay [15], in assay [16] and in assay [17] was above 100 µM throughout. Also, the TGI in [18] and in assay [19] was above 100 µM throughout.

As to `Cc1ccc(F)c2[nH]c(-c3ccccc3)cc(=O)c12`, the TGI in [1] was above 43.4 µM; in assay [2], above 100 µM; in [3], above 100 µM; in [4] it was above 100 µM; in assay [5], 14.9 µM; in assay [6], 28.5 µM. Also, the TGI in assay [7], in [8], in assay [9], in assay [10], in assay [11] and in assay [20] was above 100 µM throughout. The TGI is above 100 µM in assay [12]; above 67 µM in [13]; above 100 µM in [14]; above 100 µM in [15]; above 100 µM in [16]; 21.5 µM in assay [17]. The values for the TGI in assay [18] and in assay [19] were above 100 µM and 38.1 µM, respectively.

Consider `Cc1nc(-c2cccnc2)sc1C(=O)CC(=O)C(=O)Nc1cccc(NC(=O)C(=O)CC(=O)c2sc(-c3cccnc3)nc2C)n1`, for which the TGI in assay [1], in assay [2], in assay [3], in assay [4], in assay [5] and in assay [6] was above 100 µM throughout. Besides, the TGI in assay [7], in [8], in assay [9], in [10], in assay [11] and in [20] was above 100 µM in each case. The TGI in assay [12], in [13], in assay [14], in assay [16], in assay [17] and in [18] was above 100 µM each time. Moreover, the TGI in assay [19] is above 100 µM.

For the molecule `CCCC(=O)Nc1cc(/C=C/C(=O)N2CC(CCl)c3ccc([N+](=O)[O-])cc32)n(C)c1` (stereo unspecified), the TGI in assay [1], in [3], in assay [4], in assay [6], in assay [7] and in assay [8] was above 100 µM each time. The TGI in assay [9], in [10], in assay [11], in [20], in [12] and in assay [13] was above 100 µM throughout. The TGI in assay [14], in assay [15], in assay [16], in assay [17], in assay [18] and in assay [19] was above 100 µM in each case.

With `CCOC(=O)C(=CNc1ccc(S(N)(=O)=O)cc1)C(=O)OCC`, the TGI in assay [1], in [2], in [3], in assay [4], in [5] and in assay [6] was above 100 µM in each case. Also, the TGI in assay [7], in assay [8], in assay [9], in assay [10], in assay [11] and in [12] was above 100 µM throughout. For the same molecule, the TGI in assay [13], in assay [14], in assay [15], in [16], in assay [17] and in assay [18] was above 100 µM in each case. For the same molecule, in assay [19], the TGI is above 100 µM.

As to `COc1ccc2nc(N/N=C/c3ccc(C)s3)cc(C)c2c1`, the TGI in assay [1] is 42.6 µM; in assay [3], 55.7 µM; in [4], 66.4 µM; in assay [5], 30.5 µM; in assay [6], 34.8 µM; in [7], 37.3 µM. Besides, the TGI was 35.9 µM in assay [8]; 87.9 µM in assay [9]; 38.3 µM in assay [10]; 34.8 µM in assay [11]; 35.4 µM in assay [20]; 60.6 µM in assay [12]. Besides, the TGI is 54.7 µM in assay [13]; 38.1 µM in assay [14]; above 100 µM in [15]; 49 µM in assay [16]; 41.6 µM in [17]; 25.7 µM in assay [18]. In [19], this molecule returned a TGI above 100 µM.

With `CCOC(=O)C1=NN(c2ccc(C)cc2)C2(c3ccccc3)C=C(c3ccccc3)N(C)CCN12` (stereo unspecified), the TGI in assay [1], in assay [3], in assay [4], in assay [5], in assay [6] and in assay [7] was above 100 µM each time. Further, the TGI in [8], in [9], in assay [10], in [11], in assay [20] and in [12] was above 100 µM throughout. Further, the TGI in assay [13], in [14], in assay [15], in [16], in assay [17] and in assay [18] was above 100 µM throughout. The molecule further displayed a TGI in assay [19] above 100 µM.

As to `CCCC(=O)Oc1c2ccsc2c(OC(=O)CCC)c2ccsc12`, the TGI in assay [1] stood at 8.04 µM; in assay [2] it was 3.12 µM; in assay [3], 2.02 µM; in [4], 4.55 µM; in assay [6] it was 2.16 µM; in assay [7], 5.48 µM. Besides, the TGI in assay [8] came out at 3.52 µM; in assay [9], 5.2 µM; in [10] it was 2.98 µM; in assay [11], 5.28 µM; in assay [20], 2.07 µM; in assay [12], 0.586 µM. Moreover, the TGI worked out at 10.7 µM in [13]; 4.5 µM in [14]; 7.67 µM in [15]; 8.46 µM in assay [16]; 5.86 µM in assay [17]; 12 µM in [18]. This molecule gave a TGI in assay [19] of 4.85 µM.

On to `COC(=O)c1ccc(Oc2nc3ccc(C(F)(F)F)cc3nc2-c2ccccc2)cc1`, for which the TGI in [1], in assay [2], in assay [3], in [4], in [5] and in [6] was above 100 µM throughout. For the same molecule, the TGI in assay [7], in assay [8], in assay [9], in assay [10], in [20] and in [12] was above 100 µM in each case. The TGI in assay [13], in assay [14], in assay [15], in [16], in [17] and in [18] was above 100 µM throughout. In assay [19], this molecule gave a TGI above 100 µM.
